Columns and labels:
Experiment in all cases: relative viability (nuclei count vs DMSO), 5 days (fraction); higher = more cells survive
[1] = compound: COc1cc(N2CCC(N3CCN(C)CC3)CC2)ccc1Nc1ncc(Cl)c(Nc2ccccc2S(=O)(=O)C(C)C)n1 [NVP-TAE684] + C[C@@H](Oc1cc(-c2cnn(C3CCNCC3)c2)cnc1N)c1c(Cl)ccc(F)c1Cl [Crizotinib] (partner 1 µM)
Outline: (§1)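 After 5 days of treatment, lung cancer cells in 1536-well plates were fixed and stained in a single step (final 0.05% Triton X-100, 1% formaldehyde, 1 ug/ml Hoechst) and their nuclei counted on 4× images. Treatment had been applied by pin tool the day after seeding as one drug alone or as a fixed anchor-drug dose with five library-drug doses (not always all listed) in √10 steps. Relative viability is the nuclei count of treated wells divided by that of vehicle wells, and values are medians of duplicate plates.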

[2] = compound: C#Cc1cccc(Nc2ncnc3cc(OC)c(OCCCCCCC(=O)NO)cc23)c1 [CUDC-101] + C[C@@H](Oc1cc(-c2cnn(C3CCNCC3)c2)cnc1N)c1c(Cl)ccc(F)c1Cl [Crizotinib] (partner 1 µM)
Outline: as §1

[3] = compound: C1=CC=C2C(=C1)N=C(S2)C(C#N)C3=NC(=NC=C3)NCCC4=CN=CC=C4 + CS(=O)(=O)CCNCc1ccc(-c2ccc3ncnc(Nc4ccc(OCc5cccc(F)c5)c(Cl)c4)c3c2)o1 [Lapatinib] (partner 2 µM)
Outline: as §1

[4] = compound: COc1cc(N2CCC(N3CCN(C)CC3)CC2)ccc1Nc1ncc(Cl)c(Nc2ccccc2S(=O)(=O)C(C)C)n1 [NVP-TAE684] + N=C(N)NC(=N)NCCc1ccccc1 [Phenformin] (partner 250 µM)
Outline: as §1

Cell Line	relative viability ([1]; first compound 0.2 µM)	relative viability ([1]; first compound 0.6325 µM)	relative viability ([1]; first compound 2 µM)	relative viability ([2]; first compound 0.01 µM)	relative viability ([2]; first compound 0.03162 µM)	relative viability ([2]; first compound 0.1 µM)	relative viability ([2]; first compound 0.3162 µM)	relative viability ([2]; first compound 1 µM)	relative viability ([3]; first compound 0.005 µM)	relative viability ([3]; first compound 0.01581 µM)	relative viability ([3]; first compound 0.05 µM)	relative viability ([3]; first compound 0.1581 µM)	relative viability ([3]; first compound 0.5 µM)	relative viability ([4]; first compound 0.2 µM)	relative viability ([4]; first compound 0.6325 µM)	relative viability ([4]; first compound 2 µM)
HCC-366	0.923	0.648	0.226	0.531	0.535	0.557	0.5	0.372	0.941	1.15	0.921	1.18	1.07	0.66	0.629	0.588
NCI-H838	0.962	0.78	0.522	0.87	0.74	0.832	0.669	0.382	0.916	0.962	1.12	1.15	0.95	0.468	0.395	0.193
NCI-H520	0.668	0.651	0.348	0.743		0.756	0.636	0.316	0.672	0.818	1.01	1.15	0.819	0.553	0.451	0.242
NCI-H358	0.441	0.347	0.081	0.558	0.581	0.435	0.497	0.236	0.436	0.413	0.463	0.518	0.481	0.285	0.226	0.0829
HOP-62		0.997	0.823	0.95	0.753	1.03	0.925	0.666	0.874	1	0.893	1.12	0.903	0.545	0.734	0.788
NCI-H2170	1.31	1.15	0.996	1.14	1.23	1.17	1.2	0.732		0.258	0.249	0.285	0.259	0.404	0.364	0.358
NCI-H1651	0.893	0.836	0.836	0.91	0.803	0.91	0.934	0.813	0.76	0.697	1.03	1.11	0.872	0.278	0.336	0.179
NCI-H460	1.16	0.831	0.247	1.04	0.982	0.719	1.06	0.787		1.12	1.06	1.85	0.273	0.354	0.547	0.0633
NCI-H1734		0.7	0.424	0.778	0.699	0.566	0.583	0.397	1.05	1.09	1.03	1.14	1.01	0.332	0.338	0.255
NCI-H1915	0.922	0.921	0.858	0.982	0.941	0.889	0.837	0.627	0.681	0.975	1.01	1.14	0.835	0.332	0.343	0.369
NCI-H661	1.03	1.02	1.05	1.07	1.08	0.954	1.03	0.943	0.512	0.533	0.451	0.519	0.476	0.275	0.272	0.242
NCI-H2228	0.476	0.42	0.139	0.46	0.551	0.492	0.411	0.318	0.725	1.01	1.18	1.46	0.924	0.23	0.158	0.113
NCI-H1975	0.978	1.1	0.227	1.05	1.02	0.964	1.1	0.872	0.554	0.91	0.831	0.908	0.62	0.422	0.367	0.24
NCI-H2087	0.942	1.14	0.642	0.798	0.959	0.804	0.855	0.642	1.05	0.898	1.03	1.14	0.966	0.501	0.436	0.33
LCLC-97TM1	0.216	0.336	0.0982	0.549	0.386	0.443	0.343	0.17	0.971	0.803	0.897	0.954	0.674	0.4	0.382	0.113
EPLC-272H	0.898		0.873	0.904	0.904	0.86	0.751	0.582	0.784	0.642	1.02	1.15	0.684	0.282	0.267	0.146
CAL-12T	0.63	0.444	0.282	0.67	0.734	0.689	0.701	0.584	0.782			0.675	0.674	0.365	0.472	0.117

Cell Line	relative viability ([1]; first compound 0.2 µM)	relative viability ([1]; first compound 0.6325 µM)	relative viability ([1]; first compound 2 µM)	relative viability ([2]; first compound 0.01 µM)	relative viability ([2]; first compound 0.03162 µM)	relative viability ([2]; first compound 0.1 µM)	relative viability ([2]; first compound 0.3162 µM)	relative viability ([2]; first compound 1 µM)	relative viability ([3]; first compound 0.005 µM)	relative viability ([3]; first compound 0.01581 µM)	relative viability ([3]; first compound 0.05 µM)	relative viability ([3]; first compound 0.1581 µM)	relative viability ([3]; first compound 0.5 µM)	relative viability ([4]; first compound 0.2 µM)	relative viability ([4]; first compound 0.6325 µM)	relative viability ([4]; first compound 2 µM)
NCI-H1755	0.991	0.893	0.681	0.81	0.896	0.828	0.942	0.743	0.874	1.08	1	1.17	0.78	0.631	0.537	0.512
H3255	0.988	0.646	0.7	0.76	0.845	0.387	0.621	0.269	0.225	0.227	0.234	0.261	0.251	0.348	0.397	0.453
LK-2	0.228	0.223	0.203	0.249	0.229	0.21	0.246	0.225		0.931	0.917	1.15	0.819	0.364	0.238	0.233
SW 1573	0.971	0.805	0.673	0.805	0.804	0.927	1.09	0.423	1.12	1.13	1.04	1.35	1.12	0.307	0.249	0.128
HCC-78	0.287	0.296	0.286	0.365	0.298	0.354	0.301	0.103	1.07	0.664	0.57	1.01	0.896	0.658	0.442	0.422
SK-MES-1		0.983	0.804	1.06	1	1.02	1.04	0.945	0.455	0.542	0.408	0.473	0.445	0.642	0.686	0.453
NCI-H2023	0.549	0.45	0.144	0.623	0.602	0.622	0.628	0.558	0.793	0.85	0.793	1.2	0.711	0.449	0.415	0.19
NCI-H2126	1.08	1.07	0.726	1.07	1.08	1.01	1.01	0.866	0.75	0.718	0.721	0.873	0.685	0.53	0.468	0.361
RERF-LC-KJ	0.948	0.781	0.792	0.771	0.903	0.788	0.825	0.686	0.982	0.934	0.77	0.883	0.732	0.394	0.334	0.257
NCI-H1563	0.771	0.79	0.651	0.721	0.874	0.891	0.791	0.68	0.857	0.871	0.775	0.938	0.916	0.662	0.645	0.53
NCI-H3122	0.243	0.216	0.179	0.265	0.282	0.271	0.317	0.265	1.01	1	1.06	1	1.03	0.156	0.131	0.125
NCI-H322M	0.973	0.758	0.845	0.958	0.903	0.774	0.748	0.538	0.545	0.487	0.592	0.687	0.504	0.731	0.705	0.52
NCI-H647	0.959	0.983	0.172	1.27	1.03	1.09	0.909	0.533		1.34	1.11	1.3	0.546	0.309	0.423	0.189
EMC-BAC-2	0.751	0.806	0.441	0.726	0.76	0.732	0.571	0.388	0.845	0.855	0.826	1.02	0.879	0.402	0.464	0.319
PC-14	0.994	1.02	0.75	0.935	0.825	0.848	0.76	0.301	0.305	0.331	0.303	0.454	0.296	0.505	0.488	0.537
201T	0.972	1.01	0.889	1	1.02	0.979	1.06	0.97	0.981	0.958	1.01	1.09	1.02	0.421	0.437	0.38
LXF-289	0.852	0.791	0.706	0.804	0.835	0.828	0.736	0.577	0.803	0.914	0.915	1	0.864	0.555	0.52	0.443

Reference: the supplement of paper PMC10307832
